Source: patent US20250367283A1, “MEVALONATE PATHWAY INHIBITOR AS HIGHLY-EFFICIENT VACCINE ADJUVANT” (Tsinghua University, priority 2015, published 2025)

Each molecule was assayed against humanized farnesyl pyrophosphate synthase (HsFPPS) (Homo sapiens (Human), UniProt P14324) (assay: In vitro HsFPPS enzyme activity assay). Conditions: Example 15 table; read-out: HsFPPS (IC50/μM).
Assay type: biochemical
Procedure: The measurement method is briefly described as follows: the expression of HsFPPS with 6 consecutive His at the N-terminus was induced in vitro, collected, and purified by Ni column. An in vitro HsFPPS enzyme activity assay was performed in a 96-well plate with 200 μl of solution per well. The buffer of the system was 25 mM HEPES, 2.5 mM MgCl2, pH 7.4. Using DMAPP and IPP as reaction substrates, the change of the UV value at a wavelength of 360 nm was monitored in real time in a phosphate lyase system. The ORIGIN 8.0 software was used to plot and fit. The IC50 values for the inhibition of FPPS by the TH-Z80 series of compounds were shown in the following table, in micromoles per liter (μM).
HsFPPs with 6 consecutive His at the N-terminus was induced to express in vitro, collected, and purified by Ni column. In vitro HsFPPs enzymatic activity assay was performed in a 96-well plate at 200 μl of solution per well. The buffer of the system was 25 mM HEPES, 2.5 mM MgCl2, pH 7.4. Using DMAPP and IPP as reaction substrates, the changes of UV at 360 nm were monitored in real-time in phosphate lyase system. ORIGIN 8.0 software was used to plot and fit.

humanized farnesyl pyrophosphate synthase (HsFPPS), sequence (P14324 whole entry, looked up): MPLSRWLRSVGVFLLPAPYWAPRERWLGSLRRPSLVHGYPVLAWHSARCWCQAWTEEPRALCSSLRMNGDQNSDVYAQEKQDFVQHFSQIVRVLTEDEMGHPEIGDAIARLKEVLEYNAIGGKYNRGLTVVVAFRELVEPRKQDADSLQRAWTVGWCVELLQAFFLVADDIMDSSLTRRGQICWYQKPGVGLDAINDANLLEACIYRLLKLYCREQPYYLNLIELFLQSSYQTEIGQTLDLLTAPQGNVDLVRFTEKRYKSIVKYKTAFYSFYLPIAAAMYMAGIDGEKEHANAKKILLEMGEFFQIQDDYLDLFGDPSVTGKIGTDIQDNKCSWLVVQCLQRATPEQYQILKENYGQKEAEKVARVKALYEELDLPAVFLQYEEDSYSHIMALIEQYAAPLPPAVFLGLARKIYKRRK

| Molecule | IC50 [µM] |
| --- | --- |
| CCCCCCOc1ccc2c(c1)ncn2CC(O)(P(=O)(O)O)P(=O)(O)O [TH-Z80] | 0.11 |
| CCCCCCCCOc1ccc2c(c1)ncn2CC(O)(P(=O)(O)O)P(=O)(O)O [TH-Z81] | 0.48 |
| CCCCCCCOc1ccc2c(c1)ncn2CC(O)(P(=O)(O)O)P(=O)(O)O [TH-Z152] | 0.14 |
| CCCCCCCCCOc1ccc2c(c1)ncn2CC(O)(P(=O)(O)O)P(=O)(O)O [TH-Z153] | 4.9 |

Same assay, conditions: TH-Z80 series; DMAPP and IPP substrates, pH 7.4; read-out: IC50 for inhibition of FPPS

| Molecule | IC50 [µM] |
| --- | --- |
| CCCCCCOc1ccc2c(c1)ncn2CC(O)(P(=O)(O)O)P(=O)(O)O [TH-Z80] | 0.11 |
| CCCCCCCCOc1ccc2c(c1)ncn2CC(O)(P(=O)(O)O)P(=O)(O)O [TH-Z81] | 0.48 |
| CCCCCCCOc1ccc2c(c1)ncn2CC(O)(P(=O)(O)O)P(=O)(O)O [TH-Z152] | 0.14 |
| CCCCCCCCCOc1ccc2c(c1)ncn2CC(O)(P(=O)(O)O)P(=O)(O)O [TH-Z153] | 4.9 |

Same assay, conditions: o-aminopyridine bisphosphonic acid compounds; read-out: IC50 (inhibition of FPPS)

| Molecule | IC50 [µM] |
| --- | --- |
| CCCCCCOc1ccnc(NC(P(=O)(O)O)P(=O)(O)O)c1 [TH-Z93, (((4-(hexyloxy)pyridin-2-yl)amino)methylene)bisphosphonic acid] | 0.1 |

These molecules were tested on anti-OVA IgG (assay: Comparison with existing adjuvants: IgG titer after boost). Conditions: 100 μg adjuvant, intramuscular, 7th day after third immunization.
Assay type: in vivo, mice

| Molecule | IgG antibody titer after boost vs PBS control |
| --- | --- |
| CCCCCCOc1ccc2c(c1)ncn2CC(O)(P(=O)(O)O)P(=O)(O)O [TH-Z80] | significantly high titers |
| CCCCCCOc1ccnc(NC(P(=O)(O)O)P(=O)(O)O)c1 [TH-Z93, (((4-(hexyloxy)pyridin-2-yl)amino)methylene)bisphosphonic acid] | significantly high titers |
| CCC(C)(C)C(=O)O[C@H]1C[C@@H](C)C=C2C=C[C@H](C)[C@H](CC[C@@H]3C[C@@H](O)CC(=O)O3)[C@H]21 [simvastatin, reference compound] | significantly high titers |
| (2-(3-(octyloxy)phenyl)ethane-1,1-diyl)bisphosphonic acid [TH-Z145] | significantly high titers |

The molecules below were run on anti-OVA IgM and IgG antibodies (assay: Rescue experiment of GGPP and GGOH on adjuvant activity). Conditions: GGPP and GGOH added.
Assay type: in vivo, mice
Procedure: In particular, we investigated the effect of GGOH and GGPP on the adjuvant activity of simvastatin (HMG-COA reductase inhibitor), TH-Z93 (FPPS inhibitor), and TH-Z145 (GGPPS inhibitor).
Method: Simvastatin, TH-Z93 and TH-Z145 were formulated at a concentration of 10 mg/ml; the concentration of OVA antigen was 20 mg/ml; and GGOH and GGPP were formulated into a series of solutions at concentrations of 200 mg/ml, 100 mg/ml, 40 mg/ml and 20 mg/ml, respectively. For the experimental group, on the one hand, titers of antibodies were measured when immunization was performed without adding GGOH or GGPP while only mixing 10 μl of test compound and 5 μl of OVA antigen. On the other hand, titers of antibodies were measured when immunization was performed after adding GGOH or GGPP; specifically, 10 μl of test compound, 5 μl of OVA antigen and 5 μl of each concentration of GGOH or GGPP (total volume of 20 μl) were mixed and used for immunization in mice by injection at the sole of the right feet. Mice in the control group were treated with PBS and the antigen only, without addition of test compounds and GGOH or GGPP. On Day 7 and Day 14 after immunization, blood was taken from the mice's orbit, and 100 μl was taken for each mouse. The obtained blood was left at 4° C. overnight. The serum was separated, and titers of anti-OVA IgM and IgG antibodies in the serum were determined.

| Molecule | effect of GGPP and GGOH on adjuvant effects |
| --- | --- |
| CCCCCCOc1ccnc(NC(P(=O)(O)O)P(=O)(O)O)c1 [TH-Z93, (((4-(hexyloxy)pyridin-2-yl)amino)methylene)bisphosphonic acid] | effectively inhibit adjuvant effects |
| CCC(C)(C)C(=O)O[C@H]1C[C@@H](C)C=C2C=C[C@H](C)[C@H](CC[C@@H]3C[C@@H](O)CC(=O)O3)[C@H]21 [simvastatin, reference compound] | effectively inhibit adjuvant effects |
| (2-(3-(octyloxy)phenyl)ethane-1,1-diyl)bisphosphonic acid [TH-Z145] | effectively inhibit adjuvant effects |

Same assay, conditions: without addition of GGPP or GGOH

| Molecule | IgG and IgM antibody titers vs PBS control |
| --- | --- |
| CCCCCCOc1ccnc(NC(P(=O)(O)O)P(=O)(O)O)c1 [TH-Z93, (((4-(hexyloxy)pyridin-2-yl)amino)methylene)bisphosphonic acid] | significantly higher |
| CCC(C)(C)C(=O)O[C@H]1C[C@@H](C)C=C2C=C[C@H](C)[C@H](CC[C@@H]3C[C@@H](O)CC(=O)O3)[C@H]21 [simvastatin, reference compound] | significantly higher |
| (2-(3-(octyloxy)phenyl)ethane-1,1-diyl)bisphosphonic acid [TH-Z145] | significantly higher |
